{"source": "patent US20110136108A1", "about": "“XBP1(S) Protein Acting as an Adipocyte Differentiation Marker Having a Facility to Regulate Differentiation into Adipocytes, and an Application Therefor” (CATHOLICE UNIVERSITY INDUSTRY ACADEMIC COOPERATION …, priority 2008, published 2011)", "tested_on": "PPARγ2 mRNA", "assay": "PPARγ2 mRNA expression during adipocyte differentiation (real-time PCR)", "assay_type": "cell-based, mouse", "conditions": "SFG-xbp1i cells, 50 μM rosiglitazone in induction medium", "protocol": "From the cells subjected to differentiation, total RNA was isolated by chloroform extraction and ethanol precipitation (TRIzol Reagent, Invitrogen, Carlsbad, Calif.). Thereafter, the total RNA was used to synthesize cDNA by RT-PCR (M-MLV reverse transcriptase, Promega, MADISON, Wis.). Real-time PCR was performed using a fluorescent probe of SYBR Green (SYBR Green QPCR Master Mix (2×), TAKARA, JAPAN), with cDNA serving as a template. Relative mRNA expression levels were calculated using a comparative Ct method.\nIn this regard, XBP1(S) expression-knock-down 3T3-L1 precursor cells (SFG-xbp1i) were induced to differentiate into adipocytes in the presence of 0 or 50 μM rosiglitazone in an induction medium during which the relative expression levels of PPARγ2 mRNA were measured."}
{"compound": "CN(CCOc1ccc(CC2SC(=O)NC2=O)cc1)c1ccccn1", "note": "(stereo not shown) [rosiglitazone]", "values": [{"measurement": "expression level of PPARγ2 mRNA relative to absence of rosiglitazone", "result": 20, "unit": "times"}]}
